pIC50: −log10 of the molar value.
Columns and labels:
[1] = system: platelet aggregation induced by PAF; assay: Inhibition of platelet aggregation induced by PAF; format: cell-based; conditions: Oryctolagus cuniculus, male New Zealand rabbits, Table I
Method: 1) Inhibition of platelet aggregation induced by PAF
This experimentation was conducted according to the method of R. KINLOUGH. RATHBONE, J. P. CAZENAVE, M. PACKHAM and F. MUSTARD, Lab. Invest. 48, 98, 1980. In this test, New Zealand rabbits were used (male New Zealand rabbits of an average weight of 5 kg).
The determinations are made on a chrono-log Coultronics aggregometer, at […] coupled with a graphic recorder; the results of these determinations (in molecular concentration) are reported on the table I on the central column.

benzodiazepine receptors = assay: Inhibition of the binding to benzodiazepine receptors; conditions: rat brains, 1 hour 30 minutes at 4° C., tracers 3H-RO-15-1788 and 3H-RO-5-4864, Table I, read-out: BDZ receptors
Source text: 2) Inhibition of the binding to benzodiazepine receptors
The interest of the previous experimentation depends on the results obtained in this experimentation: as a compound of the invention has a benzodiazepine like structure, it is important to check whether the specific benzodiazepine activity would not appear at the dose where platelet aggregation was inhibited.
Therefore, this experimentation has been conducted according to the method of MOHLER H. and RICHARD J. G. Agonist and antagonist benzodiazepine receptor interaction in vitro, Nature, vol. 294, 763-765, 1981.
This experimentation was conducted on rat brains incubated 1 hour 30 minutes at 4° C. using ^3 H-RO-15-1788 and ^3 H-RO-5-4864 (NEN) as tracers and […] and RO-5-4864 as reference antagonists.
The results in molecular concentration are reported in the table I, on the right hand column.

[2] = Global ischemia on gerbils; format: in vivo; conditions: Meriones unguiculatus, 168 h, carotides clamped 10 minutes, hippocampes one week later, 3H-PK 11195, percentage of protection compared to control
Method: 3) Global ischemia on gerbils For this test, males gerbils were anaesthetized with brietal at the doses of 35 mg/kg IP; thereafter, both carotides were clamped for 10 minutes, then the clamping was released. Treated animals received each 10 mg/kg of the compounds of one of the examples. One week later, the animals were killed and both hippocampes were taken, weighed and frozen at -80° C. After crushing with 1 ml of TRIS-HCl pH 7.4 for 30 seconds, aliquots of each 50 μl of this preparation were incubed in each 1 ml of TRIS-HCl buffer containing ^3 H-PK 11195 at 2 nM (90 Ci/mmole, NENE, Germany) for 1 hour at 25° C. For each preparation, 3 determinations were made. The density of omega 3 sites (marked by the specific ^3 H-PK 11195 marker) are expressed in f-moles of PK 11195/mg of fresh tissues and converted in percentage of protection compared to control.

Row | SMILES | pIC50 [1] | pIC50 (benzodiazepine receptors) | inhibition in vivo at 10 mg/kg [2]
1 | Cc1nnc2n1-c1sc3c(c1C(c1ccccc1Cl)=NC2)CCN(C(=O)CSc1ccc(C(C)(C)C)cc1)C3 [Example 17, 6-(2-chlorophenyl)-9-(4-t.butylphenylthiomethyl-carbonyl)-7,8,9, 10-tetrahydro-1-methyl-4H-pyrido [4',3':4,5] thieno [3,2-f] 1,2,4-triazolo[4,3-a] 1,4-diazepine] | 8.06 | 5.33 | 11.1%
2 | Cc1nnc2n1-c1sc3c(c1C(c1ccccc1Cl)=NC2)CCN(C(=S)CSc1ccc(C(C)(C)C)cc1)C3 [Example 18, 6-(2-chlorophenyl)-9-(4-t.butylphenylthiomethyl-thiocarbonyl)-7,8,9, 10-tetrahydro-1-methyl-4H-pyrido [4',3':4,5] thieno [3,2-f] 1,2,4-triazolo[4,3-a] 1,4-diazepine] | 7.64 | 4.36 | 12.6%
3 | Cc1nnc2n1-c1sc3c(c1C(c1ccccc1Cl)=NC2)CCN(C(=O)CSc1ccccc1C(F)(F)F)C3 [Example 19, 6-(2-chlorophenyl)-9-(2-trifluoromethylphenylthiomethylcarbonyl)-7,8,9, 10-tetrahydro-1-methyl-4H-pyrido [4',3':4,5] thieno [3,2-f] 1,2,4-triazolo[4,3-a] 1,4-diazepine] | 8.20 | 6.57 | 45.6%
4 | Cc1nnc2n1-c1sc3c(c1C(c1ccccc1Cl)=NC2)CCN(C(=S)CSc1ccccc1C(F)(F)F)C3 [Example 20, 6-(2-chlorophenyl)-9-(2-trifluoromethylphenylthiomethylthiocarbonyl)-7,8,9, 10-tetrahydro-1-methyl-4H-pyrido [4',3':4,5] thieno [3,2-f] 1,2,4-triazolo [4,3-a] 1,4-diazepine] | 6.84 | 5.80 | 32.7%
5 | Cc1nnc2n1-c1sc3c(c1C(c1ccccc1Cl)=NC2)CCN(C(=O)CSc1cccc(C(F)(F)F)c1)C3 [Example 21, 6-(2-chlorophenyl)-9-(3-trifluoromethylphenylthiomethylcarbonyl)-7,8,9, 10-tetrahydro-1-methyl-4H-pyrido [4',3':4,5] thieno [3,2-f] 1,2,4-triazolo[4,3-a] 1,4-diazepine] | 8.06 | 6.09 | 34.1%
6 | Cc1nnc2n1-c1sc3c(c1C(c1ccccc1Cl)=NC2)CCN(C(=S)CSc1cccc(C(F)(F)F)c1)C3 [Example 22, 6-(2-chlorophenyl)-9-(3-trifluoromethylphenylthiomethylthiocarbonyl)-7,8,9, 10-tetrahydro-1-methyl-4H-pyrido [4',3':4,5] thieno [3,2-f] 1,2,4-triazolo [4,3-a] 1,4-diazepine] | 8.09 | 6.21 | 48.1%
7 | Cc1nnc2n1-c1sc3c(c1C(c1ccccc1Cl)=NC2)CCN(C(=O)CSc1ccc(C(F)(F)F)cc1)C3 [Example 23, 6-(2-chlorophenyl)-9-(4-trifluoromethylphenylthiomethylcarbonyl)-7,8,9, 10-tetrahydro-1-methyl-4H-pyrido [4',3':4,5] thieno [3,2-f] 1,2,4-triazolo[4,3-a] 1,4-diazepine] | 7.91 | 5.92 | 37.5%
8 | Cc1nnc2n1-c1sc3c(c1C(c1ccccc1Cl)=NC2)CCN(C(=S)CSc1ccc(C(F)(F)F)cc1)C3 [Example 24, 6-(2-chlorophenyl)-9-(4-trifluoromethylphenylthiomethylthiocarbonyl)-7,8,9, 10-tetrahydro-1-methyl-4H-pyrido [4',3':4,5] thieno [3,2-f] 1,2,4-triazolo [4,3-a] 1,4-diazepine] | 7.49 | 5.48 | 38.7%
9 | Cc1nnc2n1-c1sc3c(c1C(c1ccccc1Cl)=NC2)CCN(C(=O)CSc1ccc(F)cc1)C3 [Example 25, 6-(2-chlorophenyl)-9-(4-fluorophenylthiomethyl-carbonyl)-7,8,9, 10-tetrahydro-1-methyl-4H-pyrido [4',3':4,5] thieno [3,2-f] 1,2,4-triazolo[4,3-a] 1,4-diazepine] | 7.95 | 6.20 | 14.7%
10 | Cc1nnc2n1-c1sc3c(c1C(c1ccccc1Cl)=NC2)CCN(C(=S)CSc1ccc(F)cc1)C3 [Example 26, 6-(2-chlorophenyl)-9-(4-fluorophenylthiomethyl-thiocarbonyl)-7,8,9, 10-tetrahydro-1-methyl-4H-pyrido [4',3':4,5] thieno [3,2-f] 1,2,4-triazolo[4,3-a] 1,4-diazepine] | 8.18 | 6.21 | 26.5%
11 | Cc1nnc2n1-c1sc3c(c1C(c1ccccc1Cl)=NC2)CCN(C(=O)CSc1cccc(Cl)c1Cl)C3 [Example 27, 6-(2-chlorophenyl)-9-(2,3-dichlorophenylthiomethyl-carbonyl)-7,8,9, 10-tetrahydro-1-methyl-4H-pyrido [4',3':4,5] thieno [3,2-f] 1,2,4-triazolo[4,3-a] 1,4-diazepine] | 8.07 | 4.32 | 33.3%
12 | Cc1nnc2n1-c1sc3c(c1C(c1ccccc1Cl)=NC2)CCN(C(=S)CSc1cccc(Cl)c1Cl)C3 [Example 28, 6-(2-chlorophenyl)-9-(2,3-dichlorophenylthiomethyl-thiocarbonyl)-7,8,9, 10-tetrahydro-1-methyl-4H-pyrido [4',3':4,5] thieno [3,2-f] 1,2,4-triazolo[4,3-a] 1,4-diazepine] | 8.04 | 5.37 | 35.3%
13 | Cc1nnc2n1-c1sc3c(c1C(c1ccccc1Cl)=NC2)CCN(C(=O)CSc1ccc(Oc2ccccc2)cc1)C3 [Example 29, 6-(2-chlorophenyl)-9-(4-phenoxyphenylthiomethyl-carbonyl) 7,8,9, 10-tetrahydro-1-methyl-4H-pyrido [4',3':4,5] thieno [3,2-f] 1,2,4-triazolo[4,3-a] 1,4-diazepine] | 8.04 | 5.91 | 51.6%
14 | Cc1nnc2n1-c1sc3c(c1C(c1ccccc1Cl)=NC2)CCN(C(=S)CSc1ccc(Oc2ccccc2)cc1)C3 [Example 30, 6-(2-chlorophenyl)-9-(4-phenoxyphenylthiomethyl-thiocarbonyl)-7,8,9, 10-tetrahydro-1-methyl-4H-pyrido [4',3':4,5] thieno [3,2-f] 1,2,4-triazolo[4,3-a] 1,4-diazepine] | 6.98 | 6.44 | 16.1%
15 | Cc1nnc2n1-c1sc3c(c1C(c1ccccc1Cl)=NC2)CCN(C(=O)CSc1ccco1)C3 [Example 31, 6-(2-chlorophenyl)-9-(2-furyl-thiomethyl-carbonyl)-7,8,9, 10-tetrahydro-1-methyl-4H-pyrido [4',3':4,5] thieno [3,2-f] 1,2,4-triazolo[4,3-a] 1,4-diazepine] | 8.15 | 6.64 | 36.2%
16 | Cc1nnc2n1-c1sc3c(c1C(c1ccccc1Cl)=NC2)CCN(C(=S)CSc1ccco1)C3 [Example 32, 6-(2-chlorophenyl)-9-(2-furyl-thiomethyl-thiocarbonyl)-7,8,9, 10-tetrahydro-1-methyl-4H-pyrido [4',3':4,5] thieno [3,2-f] 1,2,4-triazolo[4,3-a] 1,4-diazepine] | 8.06 | 5.89 | 30.3%

Reference: US5049559A, “Thieno-triazolo-diazepine derivatives useful as anti-ischemic agents” (priority 1989, dated 1991)
